{"source": "paper PMC10066365", "about": "“Nemacol is a small molecule inhibitor of C. elegans vesicular acetylcholine transporter with anthelmintic potential” (Nature Communications, 2023)", "tested_on": "C. elegans", "experiment": "C. elegans motor phenotype scoring on solid media (Punc/jerky-unc, coiled, paralyzed), wild-type young adults", "assay_type": "in vivo, Caenorhabditis elegans", "conditions": "for any phene, mean % fraction of young adults exhibiting any phenotype (coiled, jerky-Unc or paralyzed) / atypical locomotion (number of animals) / coiled (number of animals) / no phene (number of animals) / paralyzed (number of animals): one hour; for any phene, mean % fraction of young adults exhibiting any phenotype (coiled, jerky-Unc or paralyzed): mean of three biological replicates; for atypical locomotion (number of animals) / coiled (number of animals) / no phene (number of animals) / paralyzed (number of animals): young adults, 20 animals per trial, single replicate counts; for AVERAGES Fraction Coiled / AVERAGES Fraction Paralyzed / AVERAGES Fraction Punc: mean of 3 replicates; for Fraction Coiled / Fraction Paralyzed / Fraction Punc: single replicate", "note": "Where “and” joins values, the source holds several entries; their conditions need not be identical. Equal values may be shown once.", "data": [{"molecule": "CCC1CCC(N2CCN(c3ccc([N+](=O)[O-])cc3)CC2)CC1", "note": "(centres unmarked) [Nemacol-2]", "values": [{"measurement": "any phene, mean % fraction of young adults exhibiting any phenotype (coiled, jerky-Unc or paralyzed)", "setting": "3.75uM", "value": 29.1667, "unit": "%"}, {"measurement": "atypical locomotion (number of animals)", "setting": "3.75uM", "value": "5 and 8 and 2 and 3 and 9"}, {"measurement": "coiled (number of animals)", "setting": "3.75uM", "value": 0}, {"measurement": "no phene (number of animals)", "setting": "3.75uM", "value": "15 and 12 and 18 and 17 and 11"}, {"measurement": "paralyzed (number of animals)", "setting": "3.75uM", "value": 0}, {"measurement": "NP (number of animals)", "setting": "15 μM, 30 min, adults", "value": "5 and 7 and 10"}, {"measurement": "P (number of animals)", "setting": "15 μM, 30 min, adults", "value": 0}, {"measurement": "Punc (number of animals)", "setting": "15 μM, 30 min, adults", "value": "10 and 9 and 8"}, {"measurement": "AVERAGES Fraction Coiled", "setting": "15 μM, 30 min, adults", "value": 0.0926}, {"measurement": "AVERAGES Fraction Paralyzed", "setting": "15 μM, 30 min, adults", "value": 0.0}, {"measurement": "AVERAGES Fraction Punc", "setting": "15 μM, 30 min, adults", "value": 0.5}, {"measurement": "Fraction Coiled", "setting": "15 μM, 30 min, adults", "value": "0.167 and 0.111 and 0.0"}, {"measurement": "Fraction Paralyzed", "setting": "15 μM, 30 min, adults", "value": 0.0}, {"measurement": "Fraction Punc", "setting": "15 μM, 30 min, adults", "value": "0.556 and 0.5 and 0.444"}, {"measurement": "C2 (number of animals)", "setting": "15 μM, 60 min, adults", "value": "2 and 1"}, {"measurement": "P (number of animals)", "setting": "15 μM, 60 min, adults", "value": 0}, {"measurement": "Punc (number of animals)", "setting": "15 μM, 60 min, adults", "value": "14 and 15"}, {"measurement": "AVERAGES Fraction Coiled", "setting": "15 μM, 60 min, adults", "value": 0.13}, {"measurement": "AVERAGES Fraction Paralyzed", "setting": "15 μM, 60 min, adults", "value": 0.0}, {"measurement": "AVERAGES Fraction Punc", "setting": "15 μM, 60 min, adults", "value": 0.8}, {"measurement": "Fraction Coiled", "setting": "15 μM, 60 min, adults", "value": "0.111 and 0.167"}, {"measurement": "Fraction Paralyzed", "setting": "15 μM, 60 min, adults", "value": 0.0}, {"measurement": "Fraction Punc", "setting": "15 μM, 60 min, adults", "value": 0.8}, {"measurement": "C2 (number of animals)", "setting": "15 μM, 90 min, adults", "value": "1 and 2"}, {"measurement": "P (number of animals)", "setting": "15 μM, 90 min, adults", "value": 0}, {"measurement": "Punc (number of animals)", "setting": "15 μM, 90 min, adults", "value": "15 and 11"}, {"measurement": "AVERAGES Fraction Coiled", "setting": "15 μM, 90 min, adults", "value": 0.113}, {"measurement": "AVERAGES Fraction Paralyzed", "setting": "15 μM, 90 min, adults", "value": 0.0}, {"measurement": "AVERAGES Fraction Punc", "setting": "15 μM, 90 min, adults", "value": 0.8}, {"measurement": "Fraction Coiled", "setting": "15 μM, 90 min, adults", "value": "0.111 and 0.118"}, {"measurement": "Fraction Paralyzed", "setting": "15 μM, 90 min, adults", "value": 0.0}, {"measurement": "Fraction Punc", "setting": "15 μM, 90 min, adults", "value": "0.8 and 0.647"}, {"measurement": "Punc (number of animals)", "setting": "15 μM, 120 min, adults", "value": "11 and 7"}, {"measurement": "AVERAGES Fraction Coiled", "setting": "15 μM, 120 min, adults", "value": 0.0741}, {"measurement": "AVERAGES Fraction Paralyzed", "setting": "15 μM, 120 min, adults", "value": 0.0185}, {"measurement": "AVERAGES Fraction Punc", "setting": "15 μM, 120 min, adults", "value": 0.537}, {"measurement": "Fraction Coiled", "setting": "15 μM, 120 min, adults", "value": "0.0556 and 0.111"}, {"measurement": "Fraction Paralyzed", "setting": "15 μM, 120 min, adults", "value": "0.0 and 0.0556"}, {"measurement": "Fraction Punc", "setting": "15 μM, 120 min, adults", "value": "0.6 and 0.4"}, {"measurement": "C1 (number of animals)", "setting": "15 μM, 240 min, adults", "value": 0}, {"measurement": "C2 (number of animals)", "setting": "15 μM, 240 min, adults", "value": 0}, {"measurement": "NP (number of animals)", "setting": "15 μM, 240 min, adults", "value": "8 and 12 and 15"}, {"measurement": "P (number of animals)", "setting": "15 μM, 240 min, adults", "value": 0}, {"measurement": "AVERAGES Fraction Coiled", "setting": "15 μM, 240 min, adults", "value": 0.037}, {"measurement": "AVERAGES Fraction Paralyzed", "setting": "15 μM, 240 min, adults", "value": 0.0741}, {"measurement": "AVERAGES Fraction Punc", "setting": "15 μM, 240 min, adults", "value": 0.6}, {"measurement": "Fraction Coiled", "setting": "15 μM, 240 min, adults", "value": "0.0 and 0.111"}, {"measurement": "Fraction Paralyzed", "setting": "15 μM, 240 min, adults", "value": "0.0 and 0.111"}, {"measurement": "Fraction Punc", "setting": "15 μM, 240 min, adults", "value": "0.556 and 0.6"}, {"measurement": "C1 (number of animals)", "setting": "15 μM, 360 min, adults", "value": 0}, {"measurement": "NP (number of animals)", "setting": "15 μM, 360 min, adults", "value": "14 and 9 and 17"}, {"measurement": "AVERAGES Fraction Coiled", "setting": "15 μM, 360 min, adults", "value": 0.037}, {"measurement": "AVERAGES Fraction Paralyzed", "setting": "15 μM, 360 min, adults", "value": 0.0185}, {"measurement": "AVERAGES Fraction Punc", "setting": "15 μM, 360 min, adults", "value": 0.2}, {"measurement": "Fraction Coiled", "setting": "15 μM, 360 min, adults", "value": "0.0 and 0.111"}, {"measurement": "Fraction Paralyzed", "setting": "15 μM, 360 min, adults", "value": "0.0 and 0.0556"}, {"measurement": "Fraction Punc", "setting": "15 μM, 360 min, adults", "value": "0.222 and 0.333 and 0.0556"}, {"measurement": "Next Day Animals alive (moving fine)", "setting": "15 μM, next day, adults", "value": "alive, recovered"}, {"measurement": "any phene, mean % fraction of young adults exhibiting any phenotype (coiled, jerky-Unc or paralyzed)", "setting": "15uM", "value": 95.873, "unit": "%"}, {"measurement": "atypical locomotion (number of animals)", "setting": "15uM", "value": "10 and 11 and 18 and 13"}, {"measurement": "coiled (number of animals)", "setting": "15uM", "value": "5 and 2 and 4"}, {"measurement": "no phene (number of animals)", "setting": "15uM", "value": "0 and 2 and 1"}, {"measurement": "paralyzed (number of animals)", "setting": "15uM", "value": "5 and 2 and 0 and 3"}, {"measurement": "C1 (number of animals)", "setting": "30 μM, 30 min, adults", "value": "3 and 2"}, {"measurement": "Punc (number of animals)", "setting": "30 μM, 30 min, adults", "value": "10 and 11 and 16"}, {"measurement": "AVERAGES Fraction Coiled", "setting": "30 μM, 30 min, adults", "value": 0.246}, {"measurement": "AVERAGES Fraction Paralyzed", "setting": "30 μM, 30 min, adults", "value": 0.0185}, {"measurement": "AVERAGES Fraction Punc", "setting": "30 μM, 30 min, adults", "value": 0.7}, {"measurement": "Fraction Coiled", "setting": "30 μM, 30 min, adults", "value": "0.333 and 0.3 and 0.111"}, {"measurement": "Fraction Paralyzed", "setting": "30 μM, 30 min, adults", "value": "0.0556 and 0.0"}, {"measurement": "Fraction Punc", "setting": "30 μM, 30 min, adults", "value": "0.556 and 0.647 and 0.9"}, {"measurement": "NP (number of animals)", "setting": "30 μM, 60 min, adults", "value": 0}, {"measurement": "Punc (number of animals)", "setting": "30 μM, 60 min, adults", "value": "7 and 8 and 13"}, {"measurement": "AVERAGES Fraction Coiled", "setting": "30 μM, 60 min, adults", "value": 0.3}, {"measurement": "AVERAGES Fraction Paralyzed", "setting": "30 μM, 60 min, adults", "value": 0.167}, {"measurement": "AVERAGES Fraction Punc", "setting": "30 μM, 60 min, adults", "value": 0.5}, {"measurement": "Fraction Coiled", "setting": "30 μM, 60 min, adults", "value": "0.4 and 0.333 and 0.222"}, {"measurement": "Fraction Paralyzed", "setting": "30 μM, 60 min, adults", "value": "0.222 and 0.0556"}, {"measurement": "Fraction Punc", "setting": "30 μM, 60 min, adults", "value": "0.4 and 0.444 and 0.7"}, {"measurement": "NP (number of animals)", "setting": "30 μM, 90 min, adults", "value": 0}, {"measurement": "P (number of animals)", "setting": "30 μM, 90 min, adults", "value": "5 and 3"}, {"measurement": "Punc (number of animals)", "setting": "30 μM, 90 min, adults", "value": "8 and 10 and 12"}, {"measurement": "AVERAGES Fraction Coiled", "setting": "30 μM, 90 min, adults", "value": 0.241}, {"measurement": "AVERAGES Fraction Paralyzed", "setting": "30 μM, 90 min, adults", "value": 0.2}, {"measurement": "AVERAGES Fraction Punc", "setting": "30 μM, 90 min, adults", "value": 0.556}, {"measurement": "Fraction Coiled", "setting": "30 μM, 90 min, adults", "value": "0.278 and 0.167"}]}]}
